From ChEMBL document CHEMBL1201862, “PubChem BioAssay data set” (2004) come the findings set out here.

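Interpolation was linear, between the two tested concentrations surrounding the appropriate level; five concentrations were tested over 48 hours in 96-well plates. Abbreviation: GI50, concentration required for 50% inhibition of growth.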 Active and inactive are the calls of the source. Rule as the data show it: active = GI50 up to about 1.1 µM and inactive = higher.

Among the test systems are A549; ACHN; HCC 2998; HCT-15; IGROV-1; M14; MCF7; MOLT-4; Malme-3M; NCI-H23; NCI-H460; NCI-H522; OVCAR-5; OVCAR-8; RPMI-8226; SK-MEL-28; SK-MEL-2; SR; SW-620; UACC-62.
What all share (assay): NCI anticancer screen, dose series, 48 h

For `C[C@]12C=CC(=O)C=C1CC[C@@H]1[C@@H]2CC[C@]2(C)OC(=O)CC[C@@H]12` [TESTOLACTONE], the GI50 with A549 was 447 µM (inactive); in the assay with ACHN, 453 µM (inactive); in the assay on HCC 2998 it was 372 µM (inactive); in the assay with HCT-15, greater than 488 µM; in the assay on IGROV-1 it was 453 µM (inactive); in the assay on M14 it was > 500 µM (inactive). Also, the GI50 was 457 µM (inactive) in the assay on MCF7; 375 µM (inactive) in the assay with MOLT-4; 480 µM (inactive) with Malme-3M; > 491 µM (inactive) in the assay on NCI-H23; 484 µM (inactive) with NCI-H460; 320 µM (inactive) with NCI-H522. Also, the GI50 in the assay with OVCAR-5 is > 489 µM (inactive); in the assay with OVCAR-8 it was > 462 µM (inactive); with RPMI-8226, 450 µM (inactive); with SK-MEL-28, 498 µM (inactive); with SK-MEL-2, > 478 µM (inactive); in the assay on SR it was 318 µM (inactive). The GI50 in the assay with SW-620 was > 486 µM (inactive); with UACC-62 it was 323 µM (inactive).

As for `CCOC(=O)CCC(C(=O)OCC)n1nc2ccc(Nc3c(C)[n+]([O-])c4cc(F)c(OCC)cc4[n+]3[O-])cc2n1` (stereo unspecified), the GI50 in the assay on A549 is 75.2 µM (inactive); in the assay on ACHN, 40.2 µM (inactive); with HCC 2998 it was 35 µM (inactive); with HCT-15 it was greater than 100 µM; in the assay on IGROV-1 it was 78.5 µM (inactive); in the assay on M14, > 100 µM (inactive). Besides, the GI50 was 61.2 µM (inactive) with MCF7; > 100 µM (inactive) with MOLT-4; > 100 µM (inactive) with Malme-3M; 32.9 µM (inactive) in the assay on NCI-H23; 29.3 µM (inactive) in the assay with NCI-H460; 30.8 µM (inactive) with NCI-H522. Further, the GI50 with OVCAR-5 was > 100 µM (inactive); in the assay on OVCAR-8 it was 30 µM (inactive); with RPMI-8226, > 100 µM (inactive); in the assay with SK-MEL-2 it was 50.2 µM (inactive); in the assay with SR, > 100 µM (inactive); with SW-620, > 100 µM (inactive). Besides, the GI50 in the assay on UACC-62 was 36.3 µM (inactive).

Regarding `O=[N+]([O-])c1ccc(-c2cc(O)c3nc4ccccc4n3c2)cc1`, the GI50 in the assay with A549 is > 100 µM (inactive); in the assay with ACHN, 65.2 µM (inactive); in the assay on HCC 2998 it was > 100 µM (inactive); with HCT-15, greater than 100 µM; with IGROV-1, > 100 µM (inactive); in the assay on M14, > 100 µM (inactive). Further, the GI50 was > 84.7 µM (inactive) in the assay with MCF7; > 100 µM (inactive) with MOLT-4; > 100 µM (inactive) in the assay on Malme-3M; > 100 µM (inactive) in the assay with NCI-H23; > 100 µM (inactive) in the assay with NCI-H460; > 93.1 µM (inactive) with NCI-H522. Also, the GI50 in the assay with OVCAR-5 was > 100 µM (inactive); in the assay with OVCAR-8 it was 60.1 µM (inactive); in the assay on RPMI-8226, > 100 µM (inactive); in the assay with SK-MEL-28, > 100 µM (inactive); in the assay with SK-MEL-2 it was > 100 µM (inactive); in the assay with SR it was > 100 µM (inactive). Also, the GI50 with SW-620 was > 100 µM (inactive); with UACC-62, > 31.6 µM (inactive).

With `CCOC(=O)COc1c(OC)cc(C2C3=C(COC3=O)Oc3cc4c(cc32)OCO4)cc1OC` (stereo unspecified), the GI50 in the assay on A549 is 4.45 µM (inactive); in the assay with ACHN, 6.52 µM (inactive); in the assay on HCC 2998, 14.5 µM (inactive); in the assay with HCT-15, 0.502 µM; in the assay with IGROV-1, 1.83 µM (inactive); with M14, 3.03 µM (inactive). The GI50 in the assay with MCF7 is 3.27 µM (inactive); with MOLT-4, 0.417 µM (active); with Malme-3M, 57.8 µM (inactive); in the assay on NCI-H23 it was 0.646 µM (active); in the assay with NCI-H460, 7.94 µM (inactive); in the assay with NCI-H522 it was 0.479 µM (active). The GI50 in the assay with OVCAR-5 was > 84.1 µM (inactive); in the assay on OVCAR-8, 5.69 µM (inactive); with RPMI-8226, 0.255 µM (active); with SK-MEL-28 it was 0.614 µM (active); with SK-MEL-2, 8.75 µM (inactive); with SR it was 0.995 µM (active). Also, the GI50 is 0.476 µM (active) in the assay on SW-620 and 1.69 µM (inactive) in the assay with UACC-62.

As to `COc1cc2c[n+](C)c3c4cc(OC)c(OC)cc4c(OCc4ccccc4)cc3c2cc1OC`, the GI50 with A549 was 4.72 µM (inactive); with ACHN, > 69.3 µM (inactive); in the assay on HCC 2998, 2.1 µM (inactive); with HCT-15, greater than 100 µM; in the assay on M14, 1.77 µM (inactive); with MCF7, 0.578 µM (active). Also, the GI50 in the assay with MOLT-4 was 0.592 µM (active); in the assay on Malme-3M, 1.29 µM (inactive); in the assay on NCI-H23 it was 1.32 µM (inactive); in the assay on NCI-H460, 6.62 µM (inactive); in the assay with NCI-H522, 0.155 µM (active); with OVCAR-5, > 100 µM (inactive). In addition, the GI50 with OVCAR-8 is 1.91 µM (inactive); in the assay with RPMI-8226 it was 5.28 µM (inactive); in the assay with SK-MEL-28, 1.24 µM (inactive); in the assay on SK-MEL-2 it was 1.63 µM (inactive); in the assay on SR, 0.14 µM (active); in the assay on SW-620, 0.805 µM (active). Moreover, the GI50 in the assay on UACC-62 is 0.434 µM (active).

`Cc1ccc(S(N)(=O)=O)cc1` [P-TOLUENESULFONAMIDE]: the GI50 in the assay with A549 is > 1000 µM (inactive); with ACHN, > 1000 µM (inactive); with HCC 2998, > 1000 µM (inactive); in the assay with HCT-15 it was greater than 1000 µM; in the assay on IGROV-1, > 1000 µM (inactive); in the assay with M14, > 1000 µM (inactive). Also, the GI50 in the assay on MCF7, in the assay on MOLT-4, in the assay on Malme-3M, in the assay on NCI-H23, in the assay on NCI-H460 and in the assay on NCI-H522 was > 1000 µM (inactive) in each case. The GI50 in the assay with OVCAR-5, in the assay with OVCAR-8, in the assay with RPMI-8226, in the assay with SK-MEL-2, with SR and in the assay with SW-620 was > 1000 µM (inactive) each time. The GI50 in the assay on UACC-62 was > 1000 µM (inactive).

On to `CC(=O)c1ccc(Br)cc1NC1=CC(=O)c2ncccc2C1=O`, for which the GI50 in the assay with A549 was 2.4 µM (inactive); with ACHN, 3.6 µM (inactive); in the assay with HCC 2998, 3.22 µM (inactive); in the assay on HCT-15, 2.69 µM; in the assay with IGROV-1, 2.69 µM (inactive); in the assay on M14, 2.22 µM (inactive). In addition, the GI50 in the assay with MCF7 is 1.38 µM (inactive); with MOLT-4, 2.29 µM (inactive); in the assay on Malme-3M it was 1.64 µM (inactive); in the assay on NCI-H23, 2 µM (inactive); with NCI-H460 it was 1.12 µM (active); in the assay with NCI-H522, 3.27 µM (inactive). For the same compound, the GI50 is 13.1 µM (inactive) in the assay on OVCAR-5; 5.53 µM (inactive) with OVCAR-8; 2.18 µM (inactive) in the assay on RPMI-8226; 6.79 µM (inactive) in the assay on SK-MEL-28; 4.09 µM (inactive) in the assay with SK-MEL-2; 2.22 µM (inactive) in the assay on SR. In the assay on UACC-62, the GI50 is 2.58 µM (inactive).
